# In ChEMBL document CHEMBL1201862, “PubChem BioAssay data set” (2004):
#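 48-hour exposure; five concentrations; linearly interpolated endpoints. GI50 = concentration required for 50% inhibition of growth.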 Activity calls are given as the source filed them. No stated cut-off is given here; in the data, active = GI50 up to about 1.1 µM and inactive = higher.
# What was measured:
# Experiment in all cases: inhibition of tumour cell growth, NCI panel, 48 h
# HL-60 = test system: HL-60
# MCF7 = test system: MCF7
# MOLT-4 = test system: MOLT-4
# ACHN = test system: ACHN
# SR = test system: SR
# MDA-MB-435 = test system: MDA-MB-435
# UACC-257 = test system: UACC-257
# K562 = test system: K562
# HCC 2998 = test system: HCC 2998
# KM12 = test system: KM12
# SF-539 = test system: SF-539
# NCI-H460 = test system: NCI-H460
# IGROV-1 = test system: IGROV-1
# HT-29 = test system: HT-29
# SF-268 = test system: SF-268
# SK-MEL-5 = test system: SK-MEL-5
# SK-MEL-2 = test system: SK-MEL-2
# SK-OV-3 = test system: SK-OV-3
# Malme-3M = test system: Malme-3M
# RPMI-8226 = test system: RPMI-8226
SMILES,GI50 (HL-60),GI50 (MCF7),GI50 (MOLT-4),GI50 (ACHN),GI50 (SR),GI50 (MDA-MB-435),GI50 (UACC-257),GI50 (K562),GI50 (HCC 2998),GI50 (KM12),GI50 (SF-539),GI50 (NCI-H460),GI50 (IGROV-1),GI50 (HT-29),GI50 (SF-268),GI50 (SK-MEL-5),GI50 (SK-MEL-2),GI50 (SK-OV-3),GI50 (Malme-3M),GI50 (RPMI-8226)
CCOC(=O)c1ccc(/N=C/C=C(\Nc2ccc(C(=O)OCC)cc2)C23CC4CC(CC(C4)C2)C3)cc1,3.27 µM (inactive),43.9 µM (inactive),< 0.01 µM (active),93.1 µM (inactive),11.1 µM (inactive),89.7 µM (inactive),35.9 µM (inactive),4.05 µM (inactive),91.2 µM (inactive),43.5 µM (inactive),28.2 µM (inactive),42.2 µM (inactive),> 100 µM (inactive),26.5 µM (inactive),> 100 µM (inactive),30.6 µM (inactive),> 100 µM (inactive),> 100 µM (inactive),> 100 µM (inactive),–
Cc1cc2c(cc1Cl)Sc1nnc(Nc3ccccc3)n1S2(=O)=O,1.98 µM (inactive),8.02 µM (inactive),3.07 µM (inactive),12.2 µM (inactive),2.59 µM (inactive),5.01 µM (inactive),16.6 µM (inactive),8.69 µM (inactive),3.96 µM (inactive),12 µM (inactive),2.39 µM (inactive),8.36 µM (inactive),10 µM (inactive),23.4 µM (inactive),2.32 µM (inactive),11.7 µM (inactive),4.84 µM (inactive),–,–,2.61 µM (inactive)
C=C(C)[C@@H]1C[C@H]2O[C@](O)(C(=C)CC(=O)/C=C(/C)C[C@@H]3OC(=O)[C@]24O[C@@H]34)[C@H]1O,–,> 100 µM (inactive),> 100 µM (inactive),> 100 µM (inactive),> 100 µM (inactive),> 100 µM (inactive),> 100 µM (inactive),> 100 µM (inactive),> 100 µM (inactive),> 100 µM (inactive),> 100 µM (inactive),> 100 µM (inactive),> 100 µM (inactive),> 100 µM (inactive),> 100 µM (inactive),> 100 µM (inactive),> 100 µM (inactive),> 100 µM (inactive),> 100 µM (inactive),> 100 µM (inactive)
O=C1CC(c2ccccc2)NCCCCN2CC(CN1)C(C(O)c1ccccc1)C2=O (configuration not stated),> 100 µM (inactive),> 100 µM (inactive),> 100 µM (inactive),> 100 µM (inactive),> 100 µM (inactive),> 100 µM (inactive),> 100 µM (inactive),–,> 100 µM (inactive),> 100 µM (inactive),> 100 µM (inactive),> 100 µM (inactive),> 100 µM (inactive),> 100 µM (inactive),> 100 µM (inactive),> 100 µM (inactive),> 100 µM (inactive),> 100 µM (inactive),> 100 µM (inactive),–
CCC(C)N1CN(c2ccccc2)C2(CCN(CC3COc4ccccc4O3)CC2)C1=O (configuration not stated),14.4 µM (inactive),18.9 µM (inactive),16.1 µM (inactive),33.5 µM (inactive),17.9 µM (inactive),19.2 µM (inactive),23.9 µM (inactive),16.5 µM (inactive),18.2 µM (inactive),18.1 µM (inactive),17.8 µM (inactive),–,42.2 µM (inactive),13.1 µM (inactive),48 µM (inactive),14.7 µM (inactive),–,33.6 µM (inactive),18.5 µM (inactive),13.3 µM (inactive)
CC(=O)Nc1ccc2c(C)c3c(nc2n1)[nH]c1ccccc13,–,19.2 µM (inactive),19.7 µM (inactive),17.8 µM (inactive),17.6 µM (inactive),29.6 µM (inactive),32.9 µM (inactive),35.5 µM (inactive),33 µM (inactive),21.9 µM (inactive),57.3 µM (inactive),21.1 µM (inactive),22.2 µM (inactive),27.9 µM (inactive),33 µM (inactive),14.9 µM (inactive),22.6 µM (inactive),–,–,27.2 µM (inactive)
Cc1cc2c(c(C(=O)NCCC(=O)N[C@@H](C)C(=O)OCc3ccccc3)c1)Oc1c(cc(C)cc1C(=O)NCCC(=O)N[C@@H](C)C(=O)OCc1ccccc1)S2,–,> 100 µM (inactive),> 100 µM (inactive),> 100 µM (inactive),43.3 µM (inactive),> 100 µM (inactive),> 100 µM (inactive),> 100 µM (inactive),> 100 µM (inactive),> 100 µM (inactive),–,> 100 µM (inactive),> 100 µM (inactive),> 100 µM (inactive),> 100 µM (inactive),> 100 µM (inactive),> 100 µM (inactive),80 µM (inactive),> 100 µM (inactive),> 100 µM (inactive)
